Test system: Akt-mTOR pathway
Assay: Western blot of Akt, 4EBP1 and S6K phosphorylation (mechanism of macrophage induction)
Type: cell-based, mouse
Conditions: IL-4 20 ng/ml + MeCbl 1 mM + RAD001 (200 nM), 30 minutes
Protocol: The J774A.1 cells (Example 5-1) were seeded on a dish having a diameter of 6 cm. After 4 days, proteins were collected using a cell lysis buffer containing a cocktail of protease inhibitors. The protein concentration was measured by BCA assay. Then, 50 μg of each sample was subjected to SDS-PAGE, and the electrophoresed proteins were transferred to a polyvinylidene difluoride membrane. The membrane was blocked with a blocking buffer for 1 hour, and then the proteins were allowed to react with primary antibodies at 4° C. overnight. The proteins were further allowed to react with a secondary antibody at room temperature for 1 hour and detected using ECL Western Blotting Detection System. To detect the M1 markers iNOS and IL-1β, lipopolysaccharide (LPS) (100 ng/ml) and methylcobalamin were added at 24 hours before collecting the proteins. To detect the M2 markers Arg1 and CD206, IL-4 (20 ng/ml) and methylcobalamin were added at 72 hours before collecting the proteins.
The mechanism of the macrophage induction (Example 5) by methylcobalamin was analyzed. Specifically, the analysis was carried out as follows. At 30 minutes after IL-4 and methylcobalamin (100 nM and 1 mM) were added, activation of Akt, 4EBP1, and S6K in the Akt-mTOR pathway (one of the major signaling pathways that induce M2 gene expression) was evaluated by Western blot. In the pathway, Akt phosphorylation occurs in response to an upstream signal, and 4EBP1 phosphorylation and S6K phosphorylation further occur through mTORC1 in the downstream. The S6K phosphorylation provides a negative feedback to the upstream of the signaling pathway. Western blot was performed as in Example 5-2, except that IL-4 (20 ng/ml), methylcobalamin, and RAD001 (200 nM) were added at 30 minutes before the proteins were collected, and the primary antibodies for detection were changed.

Q: `CO[C@H]1C[C@@H]2CC[C@@H](C)[C@@](O)(O2)C(=O)C(=O)N2CCCC[C@H]2C(=O)O[C@H]([C@H](C)C[C@@H]2CC[C@@H](OCCO)[C@H](OC)C2)CC(=O)[C@H](C)/C=C(\C)[C@@H](O)[C@@H](OC)C(=O)[C@H](C)C[C@H](C)/C=C/C=C/C=C/1C` [RAD001] was tested. Which p-4EBP1/4EBP1 did it give?
A: suppressed

Q: What about the p-Akt/Akt of the same compound?
A: rescued

Q: And the p-S6K/S6K?
A: suppressed

— patent publication US12029751B2, “Therapeutic agent for nervous system disease” (OSAKA UNIVERSITY, priority 2017, dated 2024)
